From a melting point compilation (Tetko et al.) come the findings set out here.

Molecules are shown by their SMILES.

As for `Nc1cccc(NC(=O)Nc2cccc(C(F)(F)F)c2)c1`, the melting point is 180 to 182 °C.

In turn, `COc1ccc(Br)cc1NCc1ccncc1` gave a melting point of 89 to 91 °C.

With `CN(C)C(=O)c1ccccc1O`, the melting point lay in the range of 161 to 163 °C.

On to `O=C(Nc1ccccn1)c1ccc(O)cc1`, for which the melting point is 176 to 178 °C.

Compound `O=C(NC1CCNCC1)c1ccc(F)cc1` registered a melting point of 175 to 177 °C.

On to `Nc1ccc(S(N)(=O)=O)cc1N`, for which the melting point fell in the range of 145 to 154 °C.

In turn, `COC(=O)c1[nH]c(=O)[nH]c1C` gave a melting point of 229 to 231 °C.

In turn, `NCC(CCC(=O)O)C(F)(F)F` (stereo not drawn) displayed a melting point of 155 to 157 °C.

`O=Cc1ccc(OCC(=O)Nc2ccc(Cl)cc2)cc1` had a melting point of 139 to 141 °C.

In the case of `CCN(CC)S(=O)(=O)c1ccc(O)c(C(=O)O)c1`, the melting point fell in the range of 129 to 131 °C.

`CC(C)CC(C)(N)C(N)=O` (stereo not drawn) displayed a melting point of 71 to 73 °C.

For `CC1(C)C(=O)Nc2ccc(Br)cc21`, the melting point is 156 to 158 °C.

`Nc1nc(=O)c2ccccc2s1` returned a melting point of 274 to 276 °C.

Take `c1ccc(Nc2ncccn2)cc1`: the melting point lay in the range of 107 to 109 °C.

`CCOc1ccc(-c2cc(C(=O)O)c3c(C)noc3n2)cc1` gave a melting point of 222 to 224 °C.

Take `CS(=O)(=O)Nc1ccc(C(=O)CBr)cc1`: the melting point lay in the range of 178 to 180 °C.

In the case of `CCOc1ccc(C#N)cn1`, the melting point lay in the range of 97 to 99 °C.

`Cc1cc(=O)c(C(=O)O)nn1-c1ccccc1` had a melting point of 167 to 169 °C.

As to `CNC(=O)Cn1cnc(N)n1`, the melting point fell in the range of 149 to 151 °C.

Compound `CC(C)(C#N)NC(=O)c1ccccc1` had a melting point of 166 to 168 °C.

On to `Nc1ncc(Cc2ccccc2Cl)s1`, for which the melting point was in the range of 97 to 99 °C.

`CC(=O)C(C#N)c1c(Cl)cccc1Cl` (stereo not drawn) showed a melting point of 49 to 51 °C.

`O=C(COc1ccc(F)cc1)N1CCNCC1` yielded a melting point of 89 to 91 °C.

Compound `Fc1ncccc1OCc1ccccc1` yielded a melting point of 34 to 36 °C.

Compound `O=C(c1ccc(CCl)cc1)N1CCCC1` had a melting point of 198 to 200 °C.

Regarding `CC(Oc1ccc(-c2ccccc2)cc1)C(=O)O` (stereo not drawn), the melting point was in the range of 159 to 161 °C.

`NC1CCCOc2ccccc21` (stereo not drawn) displayed a melting point of 69 to 71 °C.

For the compound `O=C(O)c1ccc(-c2nnc(-c3ccccc3)o2)cc1`, the melting point was in the range of 299 to 301 °C.

Consider `Fc1cccc(Cn2cc(Br)cn2)c1F`, for which the melting point fell in the range of 53 to 55 °C.

With `CN(C)S(=O)(=O)c1ccccc1C(N)=S`, the melting point lay within 154 to 156 °C.

In turn, `COC(=O)c1sc2nc(CCl)[nH]c(=O)c2c1C` displayed a melting point of 276 to 278 °C.

Consider `Cc1nn(CC(F)(F)F)c(C)c1CC(=O)O`, for which the melting point fell in the range of 157 to 159 °C.

`N#Cc1ccc(C(F)(F)F)nc1Cl` had a melting point of 38 to 40 °C.

`O=[N+]([O-])c1cc(S(=O)(=O)C(F)F)ccc1Cl`: the melting point lay in the range of 71 to 73 °C.

As for `CCOC(=O)COc1ccccc1O`, the melting point lay in the range of 51 to 53 °C.

`Cn1cc(S(=O)(=O)Cl)cn1` returned a melting point of 48 to 50 °C.

In turn, `CC(C)(C)OC(=O)N1CCC(=O)C(Br)C1` (stereo not drawn) came in with a melting point of 95 to 97 °C.

Compound `O=C(O)Cc1csc(-c2ccc3c(c2)OCO3)n1` had a melting point of 175 to 177 °C.

The compound `NNC(=O)c1ccc2c(c1)OCCO2` had a melting point of 142 to 144 °C.

With `NC(=S)/C(=C/c1ccccc1O)C(=O)O`, the melting point lay in the range of 243 to 245 °C.

For `Cc1nc(C(=O)O)nn1-c1nnc[nH]1`, the melting point was 225 to 227 °C.

As to `CCCCc1c(C)nc2nc(S)nn2c1C`, the melting point lay in the range of 248 to 250 °C.

As to `COc1ccc(-n2cc(O)c(C(=O)O)n2)cc1`, the melting point fell in the range of 234 to 236 °C.

`O=C(O)CCc1nc2ccccc2c(=O)[nH]1` yielded a melting point of 239 to 241 °C.

As to `CN(C)S(=O)(=O)c1ccc2c(c1)NCCC2`, the melting point lay within 130 to 132 °C.

As to `O=C(Cc1cccc2ccccc12)NO`, the melting point lay in the range of 179 to 181 °C.

For the compound `Nc1cc2c(cc1Cl)OCO2`, the melting point is 90 to 92 °C.

Take `Cc1cc(O)c(C#N)c(C)n1`: the melting point was 301 to 303 °C.

`O=C(O)Cc1csc(NC(=O)c2ccco2)n1`: the melting point was 223 to 225 °C.

In the case of `CCn1c(CCC(=O)O)nc2cc(S(N)(=O)=O)ccc21`, the melting point was in the range of 263 to 265 °C.

`CCOc1ccccc1OCCC(=O)O` displayed a melting point of 97 to 99 °C.

The compound `Cc1ccc(C(C)(C)CC(=O)O)cc1` had a melting point of 50 to 57 °C.

In the case of `O=C(O)/C=C/c1ccc(Br)s1`, the melting point lay in the range of 209 to 211 °C.

`N#Cc1cccc(OCc2cccc(C(=O)O)c2)c1` showed a melting point of 179 to 181 °C.

The compound `Brc1ccc(Cn2cccn2)cc1` returned a melting point of 43 to 45 °C.

Consider `NC(=O)Cn1cc(NC(=O)OCC(F)(F)F)cn1`, for which the melting point lay in the range of 150 to 152 °C.

Turning to `Cc1nn(C)c2c1NC(=O)CS2`, the melting point lay within 197 to 199 °C.

For the compound `CN(C(=O)OC(C)(C)C)c1ccc(C(=N)N)cc1`, the melting point lay in the range of 142 to 144 °C.

For the compound `N#CC(C(=O)CCl)c1nc2ccccc2c(=O)[nH]1` (stereo not drawn), the melting point fell in the range of 216 to 218 °C.

Compound `Nc1nc(-c2cccnc2)cs1` yielded a melting point of 189 to 193 °C.

The compound `COc1ccccc1C(N)C(=O)O` (stereo not drawn) showed a melting point of 169 to 171 °C.

For `CN(C)C(=O)Sc1cnn(-c2ccccc2F)c1`, the melting point lay within 65 to 67 °C.

`CCN(CC)S(=O)(=O)c1cc(C(=O)O)n(C)c1`: the melting point lay in the range of 174 to 176 °C.

As for `COc1ccc2nc(CCl)[nH]c2n1`, the melting point lay within 151 to 153 °C.

Compound `Nc1nnc(-c2cccc(Br)c2)s1` yielded a melting point of 216 to 218 °C.

Compound `CC(C)CNC(=O)C(C)Cl` (stereo not drawn) showed a melting point of 37 to 39 °C.

As for `Cc1n[nH]cc1C(=O)NN`, the melting point was 199 to 201 °C.

Turning to `N#Cc1cc(Br)cs1`, the melting point fell in the range of 47 to 49 °C.

`O=C(C(=O)c1ccc(Cl)cc1)c1ccc(Cl)cc1` yielded a melting point of 198 to 200 °C.

Compound `COc1ccc(/C=C/C(=O)O)cc1S(=O)(=O)NC(C)C` registered a melting point of 202 to 204 °C.

`CC(=O)N1CSCC1C(=O)O` (stereo not drawn) came in with a melting point of 111 to 113 °C.

The compound `CCOC(=O)C1CN(Cc2ccccc2)CCC1=O` (stereo not drawn) came in with a melting point of 161 to 163 °C.

For `CCNC(=O)C1CCCNC1` (stereo not drawn), the melting point was in the range of 60 to 62 °C.

`CCc1nc(N)sc1C`: the melting point lay in the range of 73 to 75 °C.

On to `CC(C)Oc1ccc(-c2nc(C(=O)O)cs2)cc1`, for which the melting point lay within 203 to 205 °C.

`Nc1ccccc1C(=O)NC1CC1` yielded a melting point of 135 to 136 °C.

In turn, `Cc1ccc(CNC(=O)C2CCNCC2)cc1F` yielded a melting point of 134 to 136 °C.

In the case of `CC(C)CCc1cc(N)on1`, the melting point lay in the range of 61 to 63 °C.

Compound `O=C(O)c1cn(-c2ccc(Br)cc2Cl)nn1` gave a melting point of 144 to 146 °C.

On to `O=c1c2ccccc2nnn1CO`, for which the melting point fell in the range of 133 to 135 °C.

In the case of `O=C(O)c1ccc(-c2ccco2)[nH]c1=O`, the melting point was in the range of 299 to 301 °C.

Take `Cc1nn(C)c(-n2cncn2)c1N`: the melting point is 96 to 98 °C.

`CN(C)c1ccc(C(N)=NO)cc1` yielded a melting point of 169 to 171 °C.

Compound `O=C(O)CNC(=O)c1ccc(Br)cc1` gave a melting point of 160 to 162 °C.

`CCNC(=O)NCc1ccc(N)cc1`: the melting point was 120 to 122 °C.

The compound `O=C(c1cccnc1)c1c(F)cc(F)cc1F` had a melting point of 38 to 40 °C.

For `Sc1nnc(-c2ccncc2)n1Cc1ccccc1`, the melting point lay in the range of 195 to 197 °C.

The compound `CC(NC(=O)CC1CCCCC1)C(=O)O` (stereo not drawn) came in with a melting point of 156 to 158 °C.

What is called melting point is the temperature, or range, at which the solid turns liquid.
